The results in this text go back to ChEMBL document CHEMBL1142920, “Second generation of 5-ethenylbenzofuroxan derivatives as inhibitors of Trypanosoma cruzi growth: synthesis, biological evaluation, and structure-activity relationships” (Bioorg Med Chem, 2007).

Test [1] deals with Trypanosoma cruzi. Nature of the test: Antitrypanosomatid activity against Trypanosoma cruzi CL Brener epimastigotes assessed as reduction of growth after 5 days. Type of test: functional, organism-based. As to conditions: 120 h.
In test [2] the test system is Trypanosoma cruzi. Put plainly: Antitrypanosomatid activity against Trypanosoma cruzi Tulahuen 2 epimastigotes assessed as reduction of growth after 5 days. Type of test: functional, organism-based. As to conditions: Tulahuen 2, 120 h.
Test [3] concerns Trypanosoma cruzi. Nature of the test: Antitrypanosomatid activity against Trypanosoma cruzi Y epimastigotes assessed as reduction of growth after 5 days. Type of test: functional, organism-based. To be noted: 120 h.
Test [4] has as its system THP-1. Nature of the test: Cytotoxicity against human THP1 cells assessed as reduction of cell viability after 48 hrs. Type of test: cell-based. To be noted: THP-1, 48 h.
A short description of test [5]: Ratio of IC50 for human THP1 cells to IC50 for Trypanosoma cruzi Tulahuen 2 epimastigotes. Type of test: functional, THP-1.
A short description of test [6]: Ratio of IC50 for human THP1 cells to IC50 for Trypanosoma cruzi Y epimastigotes. Type of test: functional, THP-1.
Test [7] is described as follows: Ratio of IC50 for human THP1 cells to IC50 for Trypanosoma cruzi CL Brener epimastigotes. Type of test: functional, THP-1.

For the compound `[O-][n+]1onc2cc(/C=C/c3cccs3)ccc21`, the IC50 (commonly the concentration needed to halve the response being measured) in test [1] stood at 15 µM; in test [2] it was 0.6 µM; in test [3], 12.2 µM.

As for `N#Cc1ccc(/C=C/c2ccc3c(c2)no[n+]3[O-])cc1`, the IC50 in test [2] was more than 25 µM.

For `[O-][n+]1onc2cc(/C=C/c3ccccc3)ccc21`, the IC50 in test [4] is 149 µM.

In the case of `CC(=O)N1CCN(c2ccc(OCC3COC(Cn4ccnc4)(c4ccc(Cl)cc4Cl)O3)cc2)CC1` (stereo not given) [KETOCONAZOLE], the “Ratio IC50” value in test [5] is 4.4; in test [6] it was 4.5; in test [7], 8.8.

Regarding `CCCC/C=C/c1ccc2c(c1)no[n+]2[O-]`, the figures for the concentration for half-maximal inhibition (IC50) in test [1] and in test [2] were 12.8 µM and 19.7 µM, respectively.

For the compound `O=[N+]([O-])c1ccc(/C=C/c2ccc3c(c2)no[n+]3[O-])s1`, the results for the IC50 in test [1], in test [2] and in test [3] were 3.5 µM, 6 µM and 4.5 µM, respectively.

For the compound `COc1ccc(/C=C/c2ccc3c(c2)no[n+]3[O-])cc1`, the results for the IC50 in test [1], in test [2] and in test [3] were 5 µM, 8 µM and 8.5 µM, respectively.

Take `COC(=O)/C=C/c1ccc2c(c1)no[n+]2[O-]`: in test [2], the concentration for half-maximal inhibition (IC50) was more than 25 µM.

For `N#Cc1ccc(/C=C\c2ccc3c(c2)no[n+]3[O-])cc1`, the IC50 in test [2] was more than 25 µM.

In the case of `[O-][n+]1onc2cc(/C=C\c3ccccc3)ccc21`, the “Ratio IC50” value in test [5] is listed as 8.9; in test [6], 7; in test [7], 4.

For the compound `O=[N+]([O-])c1ccccc1/C=C/c1ccc2c(c1)no[n+]2[O-]`, the IC50 in test [1] stood at 11.1 µM; in test [2] it was 26.4 µM.

On to `C(=C/c1ccc2nonc2c1)/c1ccc2c(c1)OCO2`, for which the IC50 is more than 25 µM in test [1], more than 25 µM in test [2], more than 25 µM in test [3] and more than 400 µM in test [4]. For the same compound, the “Ratio IC50” value in test [5], in test [6] and in test [7] was less than 40 throughout.

Turning to `[O-][n+]1onc2cc(/C=C/c3ccncc3)ccc21`, the results for the IC50 in test [2] and in test [3] were 15 µM and 24 µM, respectively.

As to `[O-][n+]1onc2cc(/C=C/c3ccc(Cl)cc3)ccc21`, the IC50 in test [4] is more than 200 µM.

As for `O=C(O)c1ccc(/C=C/c2ccc3c(c2)no[n+]3[O-])cc1`, the half-inhibitory concentration (IC50) in test [2] is more than 25 µM.

Take `[O-][n+]1onc2cc(/C=C/C3CCCCC3)ccc21`: the IC50 in test [2] turned out to be 13.6 µM.

For the compound `[O-][n+]1onc2cc(/C=C\c3ccc(Cl)cc3)ccc21`, the concentration for half-maximal inhibition (IC50) in test [4] stood at 97 µM.

Take `[O-][n+]1onc2cc(C=Cc3ccc4c(c3)OCO4)ccc21`: in test [4], the IC50 is 81 µM.

As for `CN(C)c1ccc(/C=C/c2ccc3nonc3c2)cc1`, the IC50 in test [1] and in test [2] was more than 25 µM each time.

In the case of `CN(C)c1ccc(/C=C/c2ccc3c(c2)no[n+]3[O-])cc1`, the IC50 in test [1] is 4.4 µM; in test [2] it was 15.7 µM; in test [3] it was 22 µM; in test [4] it was more than 400 µM. The “Ratio IC50” value in test [5] was more than 25; in test [6], more than 18; in test [7], more than 90.

`[O-][n+]1onc2cc(/C=C\c3ccc4c(c3)OCO4)ccc21`: the IC50 in test [1] amounted to 9 µM; in test [2] it was 2.9 µM; in test [3] it was 8.5 µM; in test [4], 120 µM. The “Ratio IC50” value in test [5] came to 41.4; in test [6] it was 14.1; in test [7] it was 13.3.

With `C(=C\c1ccc2nonc2c1)/c1ccc2c(c1)OCO2`, the IC50 in test [1], in test [2] and in test [3] was more than 25 µM in each case.

Regarding `O=[N+]([O-])c1ccc(/C=C\c2ccc3c(c2)no[n+]3[O-])cc1`, the IC50 in test [1] turned out to be 10.5 µM; in test [3], 13.5 µM.

As for `CC(=O)Nc1ccc(/C=C\c2ccc3c(c2)no[n+]3[O-])cc1[N+](=O)[O-]`, in test [2], the IC50 came to 24 µM.

Regarding `O=[N+]([O-])c1ccccc1/C=C\c1ccc2c(c1)no[n+]2[O-]`, the IC50 in test [1] amounted to 13.7 µM; in test [2] it was 24.4 µM.

As for `[O-][n+]1onc2cc(C=Cc3ccc(Cl)cc3)ccc21`, the IC50 turned out to be 7.5 µM in test [1], 9 µM in test [3] and 66.7 µM in test [4]. Moreover, the “Ratio IC50” value in test [5] was determined as 15.5; in test [6] it was 7.4; in test [7], 8.9.

Turning to `CN(C/C=C/C#CC(C)(C)C)Cc1cccc2ccccc12` [TERBINAFINE], the “Ratio IC50” value in test [6] is on record as 7.4; in test [7] it was 7.8.

As for `[O-][n+]1onc2cc(/C=C\c3ccc4nonc4c3)ccc21`, the IC50 in test [2] is more than 25 µM.

As to `[O-][n+]1onc2cc(/C=C/c3ccc(C(F)(F)F)cc3)ccc21`, the results for the IC50 in test [1] and in test [3] were 4.5 µM and 10 µM, respectively.

On to `O=C(O)c1ccc(/C=C\c2ccc3c(c2)no[n+]3[O-])cc1`, for which the IC50 in test [2] was more than 25 µM.

For the compound `C=Cc1ccc2c(c1)no[n+]2[O-]`, the half-inhibitory concentration (IC50) in test [2] is more than 25 µM.

As to `[O-][n+]1onc2cc(/C=C/c3ccc(O)cc3)ccc21`, the 50% inhibitory concentration (IC50) in test [1] was found to be 22.5 µM; in test [2], 10.2 µM; in test [3] it was 25 µM.

`[O-][n+]1onc2cc(/C=C/c3cccc(F)c3)ccc21`: the values for the IC50 in test [1], in test [2] and in test [3] were 10 µM, 2.5 µM and 7.5 µM, respectively.

On to `[O-][n+]1onc2cc(/C=C/c3ccc4c(c3)OCO4)ccc21`, for which the IC50 in test [1] amounted to 9 µM; in test [2], 5.3 µM; in test [3], 7.3 µM; in test [4], 220 µM. In addition, the “Ratio IC50” value in test [5] was 41.5; in test [6], 30.1; in test [7], 24.4.

As for `[O-][n+]1onc2cc(/C=C/c3ccc(Br)cc3)ccc21`, the concentration for half-maximal inhibition (IC50) was found to be 2.5 µM in test [1], 8.7 µM in test [2] and 5.5 µM in test [3].
